# Earlier results as cited in patent publication US9079157B2, “Protein removal agent” (Thermo Fisher Scientific Baltics, UAB, priority 2012, dated 2015).
# Test system: enzymes
# Details: referenced in the BRENDA database
row,Number of inhibited enzymes,Structure (SMILES)
1,0,"O=C(O)CCCCCCC(=O)O [suberic, suberic acid]"
2,3,"O=C(O)CCCCCC(=O)O [pimelic, pimelic acid]"
3,115,"O=C(O)CCC(=O)O [succinic, succinic acid]"

# The next lines start with the compound.
row,Structure (SMILES),Number of inhibited enzymes
1,"O=C(O)C(=O)O [oxalic, oxalic acid]",119
2,"O=C(O)CCCCC(=O)O [adipic, adipic acid]",10
3,"O=C(O)CCCC(=O)O [glutaric, glutaric acid]",25
4,"O=C(O)CC(=O)O [malonic, malonic acid]",63
5,O=C(O)CC(O)(CC(=O)O)C(=O)O [citric acid],203
